Experimental data published in patent US8822503B2, “2-pyridone compounds” (Taisho Pharmaceutical Co., Ltd, priority 2009, dated 2014).

Molecular target: T1, human liver GK (Homo sapiens, UniProt P35557)
T1 construct: GST (glutathione S-transferase) (N); made in house; host or cells: E. coli
T1 sequence (P35557 1-466 isoform P35557-2): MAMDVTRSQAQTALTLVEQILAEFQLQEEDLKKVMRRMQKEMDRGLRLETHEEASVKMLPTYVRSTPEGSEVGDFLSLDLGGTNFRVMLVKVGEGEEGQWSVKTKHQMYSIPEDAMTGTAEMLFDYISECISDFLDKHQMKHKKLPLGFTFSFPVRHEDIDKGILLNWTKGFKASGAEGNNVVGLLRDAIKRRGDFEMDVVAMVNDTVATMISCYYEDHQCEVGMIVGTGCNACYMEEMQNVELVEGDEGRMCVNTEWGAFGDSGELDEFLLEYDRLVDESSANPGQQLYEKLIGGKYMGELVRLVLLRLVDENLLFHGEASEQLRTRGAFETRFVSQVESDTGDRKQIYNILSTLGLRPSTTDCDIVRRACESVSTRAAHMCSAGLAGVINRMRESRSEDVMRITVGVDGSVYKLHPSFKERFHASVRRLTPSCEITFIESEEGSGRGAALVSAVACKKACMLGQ
Assay: GK activation test
Format: biochemical
Settings: test compound concentration needed to activate 50% of maximum activation ability; 4 mM 14C-labeled glucose, 2 mM ATP, room temperature, 20 minutes
How it was run: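 GST-tagged human liver GK from E. coli (0.24 μg/well) with 4 mM 14C-glucose, 2 mM ATP in Hepes-KOH pH 7.1, KCl, MgCl2, DTT, 1% DMSO, 20 min room temperature. Labeled glucose 6-phosphate captured on anion resin, eluted and counted. EC50 = concentration giving half of maximal activation.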

COc1ccc(/C(=C\C2CCOCC2)c2ccc(C3CC3)c(=O)[nH]2)cc1Cl [Example 1-53, 6-[(E)-1-(3-Chloro-4-methoxyphenyl)-2-(tetrahydro-2H-pyran-4-yl)ethenyl]-3-cyclopropylpyridin-2(1H)-one] and CCN(CC)CCCOc1ccc(/C(=C\C2CCOCC2)c2ccc(C3CC3)c(=O)[nH]2)cc1Cl [Example 1-57, 6-[(E)-1-{3-Chloro-4-[3-(diethylamino)propoxy]phenyl}-2-(tetrahydro-2H-pyran-4-yl)ethenyl]-3-cyclopropylpyridin-2(1H)-one] fall in the same range of EC50: 500 to 3000 nM for the first, 500 to 3000 nM for the second.

COc1ccc(/C(=C\C2CCOCC2)c2ccc(C(F)(F)F)c(=O)[nH]2)cc1Cl [Example 1-54, 6-[(E)-1-(3-Chloro-4-methoxyphenyl)-2-(tetrahydro-2H-pyran-4-yl)ethenyl]-3-(trifluoromethyl)pyridin-2(1H)-one] and CSc1ccc(/C(=C\C2CCOCC2)c2ccc(C)c(=O)[nH]2)cc1Cl [Example 1-55, 6-[(E)-1-[3-Chloro-4-(methylsulfanyl)phenyl]-2-(tetrahydro-2H-pyran-4-yl)ethenyl]-3-methylpyridin-2(1H)-one] fall in the same range of EC50: 500 to 3000 nM for the first, 500 to 3000 nM for the second.

Cc1ccc(/C(=C/C2CCOCC2)c2ccc(S(C)(=O)=O)c(Cl)c2)[nH]c1=O [Example 1-56, 6-{(E)-1-[3-Chloro-4-(methylsulfonyl)phenyl]-2-(tetrahydro-2H-pyran-4-yl)ethenyl}-3-methylpyridin-2(1H)-one] and Cc1ccc(/C(=C/[C@H]2CCC(=O)C2)c2ccc(S(C)(=O)=O)c(Cl)c2)[nH]c1=O [Example 1-68, 6-{(E)-1-[3-Chloro-4-(methylsulfonyl)phenyl]-2-[(1S)-3-oxocyclopentyl]ethenyl}-3-methylpyridin-2(1H)-one] fall in the same range of EC50: 500 to 3000 nM for the first, 500 to 3000 nM for the second.

CCc1ccc(/C(=C\[C@H]2CCC(=O)C2)c2ccc(C3CC3)c(=O)[nH]2)cc1 [Example 1-58, 3-Cyclopropyl-6-{(E)-1-(4-ethylphenyl)-2-[(1S)-3-oxocyclopentyl]ethenyl}pyridin-2(1H)-one] and CSc1ccc(/C(=C\[C@H]2CCC(=O)C2)c2ccc(C3CC3)c(=O)[nH]2)cc1 [Example 1-65, 3-Cyclopropyl-6-{(E)-1-[4-(methylsulfanyl)phenyl]-2-[(1S)-3-oxocyclopentyl]ethenyl}pyridin-2(1H)-one] fall in the same range of EC50: 10 to 500 nM for the first, 10 to 500 nM for the second.

CCOc1ccc(/C(=C\[C@H]2CCC(=O)C2)c2ccc(CC)c(=O)[nH]2)cc1Cl [Example 1-59, 6-{(E)-1-(3-Chloro-4-ethoxyphenyl)-2-[(1S)-3-oxocyclopentyl]ethenyl}-3-ethylpyridin-2(1H)-one] and CCc1ccc(/C(=C/[C@H]2CCC(=O)C2)c2ccc(SC)c(Cl)c2)[nH]c1=O [Example 1-69, 6-{(E)-1-[3-Chloro-4-(methylsulfanyl)phenyl]-2-[(1S)-3-oxocyclopentyl]ethenyl}-3-ethylpyridin-2(1H)-one] fall in the same range of EC50: 10 to 500 nM for the first, 10 to 500 nM for the second.

Cc1ccc(/C(=C/[C@H]2CCC(=O)C2)c2ccc(SC3CC3)cc2)[nH]c1=O [Example 1-60, 6-{(E)-1-[4-(Cyclopropylsulfanyl)phenyl]-2-[(1S)-3-oxocyclopentyl]ethenyl}-3-methylpyridin-2(1H)-one] and Cc1ccc(/C(=C/[C@H]2CCC(=O)C2)c2ccc(S(=O)(=O)C3CC3)cc2)[nH]c1=O [Example 1-61, 6-{(E)-1-[4-(Cyclopropylsulfonyl)phenyl]-2-[(1S)-3-oxocyclopentyl]ethenyl}-3-methylpyridin-2(1H)-one] fall in the same range of EC50: 10 to 500 nM for the first, 10 to 500 nM for the second.

First: CCc1ccc(/C(=C/[C@H]2CCC(=O)C2)c2ccc(S(=O)(=O)C3CC3)cc2)[nH]c1=O [Example 1-62, 6-{(E)-1-[4-(Cyclopropylsulfonyl)phenyl]-2-[(1S)-3-oxocyclopentyl]ethenyl}-3-ethylpyridin-2(1H)-one]
Second: O=C1CC[C@H](/C=C(\c2ccc(S(=O)(=O)C3CC3)cc2)c2ccc(C(F)(F)F)c(=O)[nH]2)C1 [Example 1-63, 6-{(E)-1-[4-(Cyclopropylsulfonyl)phenyl]-2-[(1S)-3-oxocyclopentyl]ethenyl}-3-(trifluoromethyl)pyridin-2(1H)-one]
The EC50 of the first is lower: 10 to 500 nM for the first, 500 to 3000 nM for the second.

CSc1ccc(/C(=C\[C@H]2CCC(=O)C2)c2ccc(C(C)C)c(=O)[nH]2)cc1 [Example 1-64, 6-{(E)-1-[4-(Methylsulfanyl)phenyl]-2-[(1S)-3-oxocyclopentyl]ethenyl}-3-(propan-2-yl)pyridin-2(1H)-one] and CSc1ccc(/C(=C\[C@H]2CCC(=O)C2)c2ccc(C)c(=O)[nH]2)cc1Cl [Example 1-67, 6-{(E)-1-[3-Chloro-4-(methylsulfanyl)phenyl]-2-[(1S)-3-oxocyclopentyl]ethenyl}-3-methylpyridin-2(1H)-one] fall in the same range of EC50: 10 to 500 nM for the first, 10 to 500 nM for the second.

Compared with CCN(CC)CCCOc1ccc(/C(=C\[C@H]2CCC(=O)C2)c2ccc(C3CC3)c(=O)[nH]2)cc1 [Example 1-66, 3-Cyclopropyl-6-{(E)-1-{4-[3-(diethylamino)propoxy]phenyl}-2-[(1S)-3-oxocyclopentyl]ethenyl}pyridin-2(1H)-one], CSc1ccc(/C(=C\[C@H]2CCC(=O)C2)c2ccc(C3CC3)c(=O)[nH]2)cc1Cl [Example 1-71, 6-{(E)-1-[3-Chloro-4-(methylsulfanyl)phenyl]-2-[(1S)-3-oxocyclopentyl]ethenyl}-3-cyclopropylpyridin-2(1H)-one] is lower in EC50: 500 to 3000 nM for the first, 10 to 500 nM for the second.

CCc1ccc(/C(=C/[C@H]2CCC(=O)C2)c2ccc(S(C)(=O)=O)c(Cl)c2)[nH]c1=O [Example 1-70, 6-{(E)-1-[3-Chloro-4-(methylsulfonyl)phenyl]-2-[(1S)-3-oxocyclopentyl]ethenyl}-3-ethylpyridin-2(1H)-one] and CCc1ccc(/C(=C/[C@H]2CCC(=O)C2)c2ccc(S(=O)(=O)CCCO)c(Cl)c2)[nH]c1=O [Example 1-76, 6-{(E)-1-{3-Chloro-4-[(3-hydroxypropyl)sulfonyl]phenyl}-2-[(1S)-3-oxocyclopentyl]ethenyl}-3-ethylpyridin-2(1H)-one] fall in the same range of EC50: 10 to 500 nM for the first, 10 to 500 nM for the second.

First: CS(=O)(=O)c1ccc(/C(=C\[C@H]2CCC(=O)C2)c2ccc(C3CC3)c(=O)[nH]2)cc1Cl [Example 1-72, 6-{(E)-1-[3-Chloro-4-(methylsulfonyl)phenyl]-2-[(1S)-3-oxocyclopentyl]ethenyl}-3-cyclopropylpyridin-2(1H)-one]
Second: Cc1ccc(/C(=C/[C@H]2CCC(=O)C2)c2ccc(S(=O)(=O)CCCO)c(Cl)c2)[nH]c1=O [Example 1-74, 6-{(E)-1-{3-Chloro-4-[(3-hydroxypropyl)sulfonyl]phenyl}-2-[(1S)-3-oxocyclopentyl]ethenyl}-3-methylpyridin-2(1H)-one]
The EC50 of the first is lower: 10 to 500 nM for the first, 500 to 3000 nM for the second.

Cc1ccc(/C(=C/[C@H]2CCC(=O)C2)c2ccc(SCCCO)c(Cl)c2)[nH]c1=O [Example 1-73, 6-{(E)-1-{3-Chloro-4-[(3-hydroxypropyl)sulfanyl]phenyl}-2-[(1S)-3-oxocyclopentyl]ethenyl}-3-methylpyridin-2(1H)-one] and CCc1ccc(/C(=C/[C@H]2CCC(=O)C2)c2ccc(SCCCO)c(Cl)c2)[nH]c1=O [Example 1-75, 6-{(E)-1-{3-Chloro-4-[(3-hydroxypropyl)sulfanyl]phenyl}-2-[(1S)-3-oxocyclopentyl]ethenyl}-3-ethylpyridin-2(1H)-one] fall in the same range of EC50: 10 to 500 nM for the first, 10 to 500 nM for the second.
